≈ marks a conversion by molar mass, not a printed value.

For series [1], the system named is Mycobacterium tuberculosis. The experiment in a line: Antitubercular activity against Mycobacterium tuberculosis H37Rv. In kind it is functional.
Series [2] is described as follows: Inhibition of Mycobacterium tuberculosis thymidylate kinase.
The nature of series [3]: Genotoxicity in Salmonella typhimurium TA100 up to 349 uM incubated for 48 hrs in presence of rat liver S9 fraction by Ames test. It counts as toxicity, subcellular. To be noted: salmonella enterica subsp. enterica serovar typhimurium, s9, 48 h. In general terms: In the Ames test, an excess of revertant colonies over the control signals mutagenicity.
Series [4] is described as follows: Genotoxicity in Salmonella typhimurium TA100 up to 349 uM incubated for 48 hrs in absence of rat liver S9 fraction by Ames test. It counts as toxicity. To be noted: salmonella enterica subsp. enterica serovar typhimurium, s9, 48 h.
Series [5] in a line: Cytotoxicity in human MRC5 cells by neutral red uptake assay. It counts as cell-based.
Series [6] in a line: Genotoxicity in Salmonella typhimurium TA98 up to 349 uM incubated for 48 hrs in presence of rat liver S9 fraction by Ames test. It counts as toxicity, subcellular. To be noted: salmonella enterica subsp. enterica serovar typhimurium, s9, 48 h.
Series [7] relates to Mycobacterium tuberculosis. The experiment in a line: Antitubercular activity against Mycobacterium tuberculosis H37Rv ATCC 27294 grown under 7H9/ADC assessed as inhibition of all visible growth incubated for 7 to 14 days. In kind it is functional. To be noted: time 7-14 day.
Series [8] concerns Mycobacterium tuberculosis. The series is described as follows: Ratio of MIC for antitubercular activity against Mycobacterium tuberculosis H37Rv ATCC 27294 grown under 7H9/ glucose liquid culture in presence of BSA to MIC for antitubercular activity against Mycobacterium tuberculosis H37Rv ATCC 27294 grown under 7H9/ glucose liquid culture. In kind it is functional. Conditions: read-out: MIC>99.

In series [9] the test system is Mycobacterium tuberculosis. The series is described as follows: Antitubercular activity against Mycobacterium tuberculosis 14A1 deficient in nitroreductase rv3547 assessed as inhibition of all visible growth grown under 7H9/ glucose liquid culture incubated for 7 to 14 days. It counts as functional. Conditions: time 7-14 day.
In series [10] the test system is Mycobacterium tuberculosis. The series is described as follows: Antitubercular activity against Mycobacterium tuberculosis H37Rv ATCC 27294 grown under Middlebrook 7H9 Broth assessed as inhibition of all visible growth incubated for 7 to 14 days. In kind it is functional. Conditions: time 7-14 day.
Series [11] in a line: Genotoxicity in Salmonella typhimurium TA98 up to 349 uM incubated for 48 hrs in absence of rat liver S9 fraction by Ames test. In kind it is toxicity. Conditions: salmonella enterica subsp. enterica serovar typhimurium, s9, 48 h.
For series [12], the system named is Mycobacterium tuberculosis. The experiment in a line: Antitubercular activity against Mycobacterium tuberculosis H37Rv ATCC 27294 grown under GAST/Fe medium assessed as inhibition of all visible growth incubated for 7 to 14 days. In kind it is functional. Conditions: time 7-14 day.
Series [13] is described as follows: Inhibition of Mycobacterium tuberculosis thymidylate kinase in presence of ATP, dTMP, NADH and phosphoenol pyruvate by spectrophotometric assay.
Series [14] deals with Mycobacterium tuberculosis. The experiment in a line: Antitubercular activity against Mycobacterium tuberculosis H37Rv ATCC 27294 grown under 7H9/ glucose liquid culture in presence of BSA assessed as inhibition of all visible growth incubated for 7 to 14 days. To be noted: time 7-14 day. It counts as functional.

Consider `COc1cccc(-c2cc(SC)c(C#N)c(=O)[nH]2)c1`, for which the MIC in series [1] was greater than 64 µM. The compound further displayed an IC50 in series [2] of 1.5 µM.
On to `O=c1[nH]c(SCc2cc([N+](=O)[O-])cc([N+](=O)[O-])c2)nc2ccccc12`, for which the Activity result is “Non-Toxic” in [3], “Non-Toxic” in series [4], “Non-Toxic” in [6] and “Toxic” in series [11]. Moreover, in series [5], the 50% cytotoxic concentration (CC50) was greater than 64 µM. Moreover, the MIC99 in [7] was determined as 2.3 µM (≈ 0.824 µg/mL); in series [9], 12.5 µM (≈ 4.48 µg/mL); in series [10], 0.6 µM (≈ 0.215 µg/mL); in series [12] it was 0.78 µM (≈ 0.28 µg/mL); in [14], 1.56 µM. For the same compound, the MIC ratio, with BSA / without BSA in [8] was determined as 2.6 µM. Moreover, the half-inhibitory concentration (IC50) in series [13] is 120 µM.

Usually MIC stands for the smallest concentration in the dilution series that meets the test's criterion for growth inhibition. Read a low MIC as inhibition by little substance. A word on the IC50: it is the concentration needed to halve the response being measured. A word on the CC50: it is the concentration that lowers cell viability or growth by half. A low value points to harm at low concentration. What is called MIC99 is an inhibitory concentration at the 99% level, which refers to growth in some studies and to a panel of isolates in others.

(Values after ChEMBL document CHEMBL4765469, “2-((3,5-Dinitrobenzyl)thio)quinazolinones: Potent Antimycobacterial Agents Activated by Deazaflavin (F)-Dependent Nitroreductase (Ddn)” (J Med Chem, 2021).)
